Laboratory results reported in US4849425A, “Readily absorbable pharmaceutical composition” (Ishihara Sangyo Kaisha Ltd., priority 1985, dated 1989).
Values after ≈ are worked out from the molar mass of the structure shown.

Columns and labels:
[1] = Absorbability through the gut, oral suspension in cyclodextrin solutions, plasma concentration in rats (Test Example 3); format: in vivo, Wistar male rats; settings: 40% dimethyl β-type cyclodextrin vs control (0.5% sodium carboxymethyl cellulose), 20 mg/kg, rat
Experimental: (§1) 20 mg of Compound No. 3 was taken into a mortar, and 5 ml of an aqueous solution containing 1.7% of β-type cyclodextrin or 2% or 40% of dimethyl β-type cyclodextrin was added under stirring to obtain a suspension of Compound No. 3. The suspension was orally administered by an oral sonde to a group of three Wistar male rats (body weight: 200-250g). The dose of Compound No. 3 was 20 mg/kg rat body weight. Further, Compound No. 3 was likewise suspended in an aqueous solution containing 0.5% of sodium salt of carboxymethyl cellulose, and the suspension was used as the control ( in FIG. 3). After the administration, the blood was periodically sampled, and the plasma was separated. After the removal of protein by acetonitrile, Compound No. 3 in the plasma was quantitatively analyzed by a high speed liquid chromatography as shown in Test Example 1.

[2] = Absorbability through the gut, oral, various dispersing solvents, plasma concentration in rats (Test Example 4); format: in vivo, Wistar male rats; settings: 20 mg/kg, rat
Experimental: as §1, with “3 was taken into a mortar, and 5 ml of an aqueous solution containing 1.7% of β-type cyclodextrin or 2% or 40% of dimethyl β-type cyclodextrin was added under stirring to obtain a suspension of Compound No.” left out
The changes with time of the concentration of Compound No. 3 in the plasma after the oral administration were studied in the same manner as in Test Example 3 by using an aqueous solution of 10% (weight/volume) Polysolvate 80 (Tween 80, manufactured by Nakayai Kagaku K.K.), 10% (weight/volume) polyoxyethylene hardened caster oil 60 (manufactured by Nikko Chemical K.K.), 100% polyethylene glycol 400 or 50% (weight/volume) dimethyl β-type cyclodextrin, as the dispersing solvent for Compound No. 3, and an aqueous solution of 0.5% (weight/volume) sodium salt of carboxymethyl cellulose, as the control. […]

[3] = Rectal suppository, plasma concentration in rats (Test Example 6); format: in vivo, Wistar male rat; settings: rat; for Concentration in the plasma / concentration at 0.5 h / concentration at 1 h / concentration at 2 h / concentration at 4 h: rectal; for Concentration in the plasma: 0; for concentration at 0.5 h / concentration at 1 h / concentration at 2 h / concentration at 4 h: plasma
Experimental: A Witepsol W-35 suppository (weight: about 45 mg) comprising 1.8 mg of Compound No. 3 and 12.5% (weight/volume) of dimethyl β-type cyclodextrin, was administered to the rectum of each Wistar male rat having a body weight of about 90 g (a group of three rats). Then, the blood was periodically sampled from the jugular vein, and the concentration of Compound No. 3 in the plasma was measured. To a control group, a suppository contained no cyclodextrin was administered. It is evident that by the addition of dimethyl β-type cyclodextrin, the absorbability of Compound No. 3 increased.

L-1210 leukemia cells = test: Antitumour activity against intraperitoneally inoculated L-1210 leukemia, oral administration (Test Example 9); format: in vivo, BDF1 mice
Text: The pharmacological activities of the pharmaceutical compositions of the present invention were studied.
To BDF1 mice (male, […]), L-1210 leukemia cells were intraperitoneally inoculated in an amount of 1×10^6 cells/mouse. One day later and 4 days later, a test drug was orally administered. […]

[4] = Oral capsules, plasma concentration in beagle dogs (Test Example 7); format: in vivo; settings: for Concentration in the plasma: 0
Experimental: The capsules prepared in Example 3 corresponding to 20 mg/kg of Compound No. 3 were orally administered to three beagle dogs (male: body weight: 5 kg). Then, the blood was periodically sampled from the branchium vein, and the concentration of Compound No. 3 in the plasma was measured. To the control group, a suspension of Compound No. 3 (20 mg/ml) in an aqueous solution containing 0.5% of sodium salt of carboxymethyl cellulose was administered. It is evident that the present invention, the absorbability of Compound No. 3 increased.

[5] = Solubility of Compound No. 3 in aqueous cyclodextrin solutions or polyethylene glycol 400 at 25° C. (Test Example 2); format: physicochemical
Experimental: 0.1 μmol of Compound No. 1 or No. 2 was added to 1 ml of an aqueous solution of each cyclodextrin with a concentration of from 0 to 8 mM, and the mixture was shaken at 25° C. for 100 hours. After completion of the shaking, the mixture was filtered through a millipore filter of 0.45 μm to obtain a filtrate.
Separation column: As the packing material, octadecylated silica gel was filled in a stainless steel tube having an internal diameter of from 0.39 to 4.6 mm and a length of from 100 to 300 mm.
Column temperature: 30° C.
Mobile phase: Mixture of acetonitrile-water (the mixing ratio was adjusted so that the eluting time of the drug becomes from 5 to 10 minutes).
Wave length for detection: 265 nm
7.5 mg of […]. was added to 1 ml of an aqueous solution of each cyclodextrin at various concentrations or to 1 ml of polyethylene glycol 400, and the solubility of Compound No. 3 at 25° C. was obtained in the same manner as the Test Example b 1.

[6] = 1.8 mg, Witepsol W-35 suppository, 12.5% (w/v) dimethyl β-type cyclodextrin
[7] = 1.8 mg, control suppository without cyclodextrin
[8] = dog, plasma, po, 20 mg/kg, control, suspension in 0.5% sodium salt of carboxymethyl cellulose
[9] = dog, plasma, po, 20 mg/kg, polyethylene glycol 400 capsules of Example 3, oral 20 mg/kg

Compound: O=C(NC(=O)c1ccccc1[N+](=O)[O-])Nc1ccc(Oc2ncc(Br)cn2)c(Cl)c1 [Compound No. 3, N-(2-nitrobenzoyl)-N'-[4-(5-bromo-2-pyrimidinyloxy)-3-chlorophenyl]urea]
- concentration in the plasma relative to the control [1]: about 3.5 times
- concentration in the plasma as compared with the control ([2]; 50% (w/v) dimethyl β-type cyclodextrin vs 0.5% sodium carboxymethyl cellulose): about 7.5 times
- concentration in the plasma as compared with the control ([2]; 100% polyethylene glycol 400 vs 0.5% sodium carboxymethyl cellulose): about 5 times
- Concentration in the plasma ([3]; Witepsol W-35 suppository, 1.8 mg, 12.5% (w/v) dimethyl β-type cyclodextrin): 0 µg/mL
- absorbability ([3]; addition of dimethyl β-type cyclodextrin, rectal suppository): increased
- Concentration in the plasma ([3]; control suppository without cyclodextrin): 0 µg/mL
- concentration at 0.5 h [3, 6]: 320 ng/mL
- concentration at 1 h [3, 6]: 480 ng/mL
- concentration at 2 h [3, 6]: 940 ng/mL
- concentration at 4 h [3, 6]: 990 ng/mL
- concentration at 0.5 h [3, 7]: 40 ng/mL
- concentration at 1 h [3, 7]: 80 ng/mL
- concentration at 2 h [3, 7]: 110 ng/mL
- concentration at 4 h [3, 7]: 90 ng/mL
- antitumour activities (L-1210 leukemia cells; only when administered together with the substance specified in the invention): distinctly observed
- T/C (L-1210 leukemia cells; polyethylene glycol 400 + substrate + Compound No. 3, 6.25 mg/kg): 120%
- T/C (L-1210 leukemia cells; polyethylene glycol 400 + substrate + Compound No. 3, 12.5 mg/kg): 134%
- T/C (L-1210 leukemia cells; polyethylene glycol 400 + substrate + Compound No. 3, 25 mg/kg): 183%
- T/C (L-1210 leukemia cells; polyethylene glycol 400 + substrate + Compound No. 3, 50 mg/kg): 95%
- antitumour activities (L-1210 leukemia cells; polyethylene glycol 400 absent): no antitumour activities were observed
- T/C (L-1210 leukemia cells; substrate + Compound No. 3 (no polyethylene glycol 400), 6.25 mg/kg): 102%
- T/C (L-1210 leukemia cells; substrate + Compound No. 3 (no polyethylene glycol 400), 12.5 mg/kg): 102%
- T/C (L-1210 leukemia cells; substrate + Compound No. 3 (no polyethylene glycol 400), 25 mg/kg): 101%
- T/C (L-1210 leukemia cells; substrate + Compound No. 3 (no polyethylene glycol 400), 50 mg/kg): 103%
- Concentration in the plasma ([4]; control, suspension in 0.5% sodium salt of carboxymethyl cellulose, oral): 0 µg/mL
- concentration at 1 h [4, 8]: 70 ng/mL
- concentration at 2 h [4, 8]: 100 ng/mL
- concentration at 1 h [4, 9]: 610 ng/mL
- concentration at 2 h [4, 9]: 1120 ng/mL
- concentration at 4 h ([4]; dog, plasma, po, 20 mg/kg, polyethylene glycol 400 capsules of Example 3, oral 20 mg/kg, 4 hrs): 1110 ng/mL
- absorbability ([4]; polyethylene glycol 400 capsules of Example 3, oral): increased
- Concentration in the plasma ([4]; polyethylene glycol 400 capsules of Example 3, oral 20 mg/kg): 0 µg/mL
- solubility ([5]; aqueous dimethyl α-type cyclodextrin, dimethyl α-type cyclodextrin 17.5 mg/ml, aqueous): 0.294 µg/mL (≈ 0.597 µM)
- solubility ([5]; aqueous dimethyl β-type cyclodextrin, dimethyl β-type cyclodextrin 20.0 mg/ml, aqueous): 24.1 µg/mL (≈ 48.9 µM)
- solubility ([5]; aqueous dimethyl β-type cyclodextrin, dimethyl β-type cyclodextrin 140 mg/ml, aqueous): 5180 µg/mL (≈ 10500 µM)
- solubility ([5]; aqueous dimethyl β-type cyclodextrin, dimethyl β-type cyclodextrin 500 mg/ml, aqueous): 7440 µg/mL (≈ 15100 µM)
- solubility ([5]; aqueous solution, no additives, aqueous solution containing no additives): 0.024 µg/mL (≈ 0.0487 µM)
- solubility ([5]; aqueous trimethyl β-type cyclodextrin, trimethyl β-type cyclodextrin 21.4 mg/ml, aqueous): 1 µg/mL (≈ 2.03 µM)
- solubility ([5]; aqueous trimethyl β-type cyclodextrin, trimethyl β-type cyclodextrin 100 mg/ml, aqueous): 13.4 µg/mL (≈ 27.2 µM)
- solubility ([5]; aqueous trimethyl β-type cyclodextrin, trimethyl β-type cyclodextrin 200 mg/ml, aqueous): 30.4 µg/mL (≈ 61.7 µM)
- solubility ([5]; aqueous α-type cyclodextrin 14.6 mg/ml, α-type cyclodextrin 14.6 mg/ml, aqueous): 0.164 µg/mL (≈ 0.333 µM)
- solubility ([5]; aqueous β-type cyclodextrin 17.0 mg/ml, β-type cyclodextrin 17.0 mg/ml, aqueous): 1.64 µg/mL (≈ 3.33 µM)
- solubility ([5]; polyethylene glycol 400, organic solvent or mixture, polyethylene glycol 400, 100%): 7500 µg/mL (≈ 15200 µM)
